Measurements taken from PMC5918173, “Characterization of Transglutaminase 2 activity inhibitors in monocytes in vitro and their effect in a mouse model for multiple sclerosis” (PLoS ONE, 2018).

Key:
[1] = tested on: inflammatory cells in spinal cord of EAE mice; assay: Immunohistochemistry of cell infiltrates (CD45, CD68, CD3) in spinal cord of EAE mice; format: in vivo, mouse; design: key to CD45 (average) / CD68 (average): -: no positive cells; +: few positive cells; ++: intermediate amounts of positive cells; +++: high amounts of cells/ cellular clusters; conditions: for CD3 range / CD45 (average) / CD45 range / CD68 (average) / CD68 range: spinal cord of EAE mice, semi-quantitative, 3 sections per animal; for relative amount of inflammatory cells (CD45, CD68, CD3) in spinal cord: visual inspection or semi-quantification, versus vehicle
Experimental: Immunohistochemical staining was performed on cervical, thoracic and lumbar spinal cord sections from EAE mice treated with vehicle, BJJF078 or ERW1041E. The sections were brought back to room temperature and fixed with acetone for 10 min.
For single immunohistochemical stainings (CD3, CD45, CD68), endogenous peroxidase activity was blocked for 15 min with 0.3% hydrogen peroxide and 0.1% sodium azide in TBS. […] The sections were incubated with primary antibodies (Table 1) at 4°C overnight. After subsequent 2 h incubation with appropriate biotinylated IgGs (1/400, Jackson), the procedure was continued with a 1 h incubation with HRP-labelled avidin-biotin complex (ABC complex 1:400, Vector ABC elite kit, Vector laboratories) and the protocol was followed as described for the in situ TG activity staining above. Semi-quantitative analysis of cellular infiltrates per cell type was performed by unbiased manual evaluation of stained lesion areas per spinal cord section.

[2] = tested on: inflammatory mediator mRNA in spinal cord; assay: qPCR of inflammation-related genes in spinal cord of EAE mice; format: in vivo, mouse; conditions: normalized to GAPDH
Experimental: Total RNA from snap frozen spinal cord (pooled cervical, thoracic and lumbar region) was isolated using Trizol (Invitrogen) according to the manufacturer’s protocol. RNA concentration and purity was determined with a NanoDrop 2000 spectrophotometer (Thermo Fisher Scientific). Purity was accepted with a 260/230 nm absorbance ratio of 2.00–2.20 and a 260/280 ratio of 1.90.-2.00. For reverse transcription into cDNA, 1 μg of RNA was used with the High-Capacity cDNA Reverse Transcription kit (Life Technologies), using 50 pmol oligo-dT16 primers, according to the manufacturer’s instructions. For quantitative real-time PCR (qPCR), Power SYBR Green Master Mix (Applied Biosystems) was used according to manufacturer’s protocol. Intron-spanning primers (Table 2) were designed with Primer-BLAST [29], purchased from Eurogentec and used at 3.75 pmol per 12.5 ng cDNA in each reaction. Subsequently, qPCR was performed according to the previously published MIQE guidelines. The qPCR reaction was performed in a total volume of 20 μl in MicroAmp Optical 96-well Reaction Plates on a StepOnePlus Real-Time PCR system (Applied Biosystems). The thermal cycling conditions were an initial 10 min at 95°C followed by 50 cycles of 15 s at 95°C and 1 min at 60°C. The reaction specificity was verified by a melt curve analysis. The relative expression level of the target genes was determined by the LinRegPCR software (http://www.hfrc.nl, downloads, applications, lin reg PCR, version 2017) using the following calculation N0 = Nq/ECq (N0 = target quantity, Nq = fluorescence threshold value, E = mean PCR efficiency per amplicon, Cq = threshold cycle. The obtained values were normalized to glyceraldehyde-3-phosphate-dehydrogenase expression (GAPDH).

[3] = proposed; reference not given; cited from earlier work

Compound	CD3 range [1]	CD45 (average) [1]	CD45 range [1]	CD68 (average) [1]	CD68 range [1]	relative amount of inflammatory cells (CD45, CD68, CD3) in spinal cord [1]	IL-1ra mRNA level in spinal cord versus vehicle ([2]; Fig 7a)	IL-1β mRNA level in spinal cord versus vehicle ([2]; Fig 7b)	IFNγ mRNA level in spinal cord versus vehicle ([2]; Fig 7c)	iNOS mRNA level in spinal cord versus vehicle ([2]; Fig 7e)	TNFα mRNA level in spinal cord versus vehicle ([2]; Fig 7d)	inhibitory in vivo half-life [3] [h]
C=CC(=O)NC1CCN(S(=O)(=O)c2cccc3c(NC(=O)c4ccc(OC)c(OC)c4)cccc23)CC1 [BJJF078, 3,4-Dimethoxy-N-(5-[4-(acryloylamino)piperidine-1-sulfonyl]-naphthalen-1-yl)-benzamide]	- to +	++	+ to +++	++	- to +++	not affected						
O=C(NCC1CC(Br)=NO1)C1CCCN1C(=O)OCc1cnc2ccccc2c1 (stereo not drawn) [ERW1041E, 2-[(3-Bromo-4,5-dihydro-isoxazol-5-ylmethyl)-carbamoyl]-pyrrolidine-1—carboxylic acid quinolin-3-ylmethyl ester]	- to +	++	+ to +++	++	- to +++	not affected	not significantly changed	not significantly changed	not significantly changed	slightly but not significantly enhanced	slightly but not significantly enhanced	12
